From patent publication EP2141164A1, “New 1,2,4-triazine derivatives and biological applications thereof” (priority 2008, dated 2010)

target: T1, RfaE (Escherichia coli, UniProt P76658); experiment: RfaE luminescent assay (inhibition of the enzymatic activity of RfaE); type: biochemical, E.coli; details: luminescent ATP detection; 3 nM RfaE, 0.2 µM β-heptose-7-phosphate, 0.2 µM ATP; 30 min pre-incubation
T1 construct: made in house; host or cells: E.coli
Text: RfaE is a kinase sharing similarities with the ribokinases family. It catalyses an essential step of the biosynthesis of L-ADP-Heptose, namely the phosphorylation of β-heptose-7-phosphate (H7P) into β-heptose-1,7-bisphosphate (H1,7P). RfaE assays as described in the literature are essentially based on direct HLPC detection of the substrates H7P and ATP, and of the products H1,7P and ADP, raising obvious limitations for HTS applications. The assays described below are based either on luminescent ATP detection, or on fluorescent ADP detection. They are easily amenable to miniaturized formats and fast readouts as required by HTS.
The assay buffer "AB" contains 50 mM Hepes pH=7.5, 1 mM MnCl2, 25 mM KCI, 0.012% Triton-X100 and 1 mM DTT (Dithiothreitol). The following components are added in a white polystyrene Costar plate up to a final volume of 31 µL: 3 µL DMSO, or inhibitor dissolved in DMSO and 28 µL RfaE in AB. After 30min of pre-incubation at room temperature, 29 µL of Substrates mix in AB are added in each well to a final volume of 60 µL. This reaction mixture is then composed of 3 nM RfaE (produced in house from E.coli), 0.2 µM β -heptose-7-phosphate (in house synthesis) and 0.2 µM ATP (Sigma) in assay buffer. After 40min of incubation at room temperature, 200 µL of the revelation mix are added to a final volume of 260 µL, including the following constituents at the respective final concentrations: 2 nM luciferase (Sigma), 30 µM D-luciferin (Sigma), 100 µM N-acetylcysteamine (Aldrich). Luminescence intensity is immediately measured on an Analyst-HT (Molecular Devices) and converted into inhibition percentages.
For IC50 determinations, the inhibitor is tested at 6 to 10 different concentrations, and the related inhibitions are fitted to a classical langmuir equilibrium model using XLFIT (IDBS).

T1 sequence (P76658 whole entry): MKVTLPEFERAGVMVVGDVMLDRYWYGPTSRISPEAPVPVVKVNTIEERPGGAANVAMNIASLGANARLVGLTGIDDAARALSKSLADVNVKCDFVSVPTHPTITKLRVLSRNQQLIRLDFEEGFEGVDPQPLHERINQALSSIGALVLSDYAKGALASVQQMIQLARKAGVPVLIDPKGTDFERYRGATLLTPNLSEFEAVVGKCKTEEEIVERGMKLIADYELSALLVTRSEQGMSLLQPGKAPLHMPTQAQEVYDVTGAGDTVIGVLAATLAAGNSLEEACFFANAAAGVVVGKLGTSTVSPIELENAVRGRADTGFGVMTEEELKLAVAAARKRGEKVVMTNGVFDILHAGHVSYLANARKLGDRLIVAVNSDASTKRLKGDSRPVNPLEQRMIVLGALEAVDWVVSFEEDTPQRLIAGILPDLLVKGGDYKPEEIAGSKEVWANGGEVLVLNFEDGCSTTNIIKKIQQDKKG

SMILES	IC50
Cc1nc(CNc2nncc(-c3ccccc3Cl)n2)sc1C [Example 9, 5-(2-Chlorophenyl)-N-[(4,5-dimethyl-1,3-thiazol-2-yl)methyl]-1,2,4-triazin-3-amine]	4300 nM
COc1ccc2sc(CNc3nncc(-c4c(Cl)cccc4Cl)n3)nc2c1 [Example 15, 5-(2,6-Dichlorophenyl)-N-[(5-methoxy-1,3-benzothiazol-2-yl)methyl]-1,2,4-triazin-3-amine]	130 nM
OCCOc1ccc2sc(CNc3nncc(-c4c(Cl)cccc4Cl)n3)nc2c1 [Example 16, 2-{[2-({[5-(2,6-Dichlorophenyl)-1,2,4-triazin-3-yl]amino}methyl)-1,3-benzothiazol-5-y]oxy}ethanol]	18 nM
O=C(O)COc1ccc2sc(CNc3nncc(-c4c(Cl)cccc4Cl)n3)nc2c1 [Example 17, {[2-({[5-(2,6-dichlorophenyl)-1,2,4-triazin-3-yl]amino}methyl)-1,3-benzothiazol-5-yl]oxy}acetic acid]	19 nM
O=C(COc1ccc2sc(CNc3nncc(-c4c(Cl)cccc4Cl)n3)nc2c1)NCCO [Example 18, 2-(2-{[5-(2,6-Dichloro-phenyl)-[1,2,4]triazin-3-ylamino]-methyl}-benzothiazol-5-yloxy)-N-(2-hydroxy-ethyl)-acetamide]	47 nM
CN(C)CCNC(=O)COc1ccc2sc(CNc3nncc(-c4c(Cl)cccc4Cl)n3)nc2c1 [Example 19, 2-(2-{[5-(2,6-Dichloro-phenyl)-[1,2,4]triazin-3-ylamino]-methyl}-benzothiazol-5-yloxy)-N-(2-dimethylamino-ethyl)-acetamide]	165 nM
CC(=O)COc1ccc2sc(CNc3nncc(-c4c(Cl)cccc4Cl)n3)nc2c1 [Example 20, 1-{[2-({[5-(2,6-Dichlorophenyl)-1,2,4-triazin-3-yl]amino}methyl)-1,3-benzothiazol-5-yl]oxy}acetone]	77 nM
NC(=O)COc1ccc2sc(CNc3nncc(-c4c(Cl)cccc4Cl)n3)nc2c1 [Example 21, 2-{[2-({[5-(2,6-Dichlorophenyl)-1,2,4-triazin-3-yl]amino}methyl)-1,3-benzothiazol-5-yl]oxy}acetamide]	67 nM
COc1ccc2ccccc2c1-c1cnnc(NCc2nc3ccccc3s2)n1 [Example 22, Benzothiazol-2-ylmethyl-[5-(2-methoxy-naphthalen-1-yl)-[1,2,4]triazin-3-yl]-amine]	130 nM
COc1ccc2sc(CNc3nncc(-c4c(OC)ccc5ccccc45)n3)nc2c1 [Example 29, N-[(5-Methoxy-1,3-benzothiazol-2-yl)methyl]-5(2-methoxy-1-naphthyl)-1,2,4-triazin-3-amine]	51 nM
Oc1ccc2ccccc2c1-c1cnnc(NCc2nc3ccccc3s2)n1 [Example 32, 1-{3-[(Benzothiazol-2-ylmethyl)-amino]-[1,2,4]triazin-5-yl}-naphthalen-2-ol]	63 nM
Oc1ccc2sc(CNc3nncc(-c4c(O)ccc5ccccc45)n3)nc2c1 [Example 33, 2-{[5-(2-Hydroxy-naphthalen-1-yl)-[1,2,4]triazin-3-ylamino]-methyl}-benzothiazol-5-ol]	20 nM
COc1ccc2sc(CNc3nncc(-c4c(C)cccc4O)n3)nc2c1 [Example 35, 2-(3-{[(5-Methoxy-1,3-benzothiazol-2-yl)methyl]amino}-1,2,4-triazin-5-yl)-3-methylphenol]	69 nM
Cc1cccc(O)c1-c1cnnc(NCc2nc3cc(NCc4nccs4)ccc3s2)n1 [Example 43, 3-Methyl-2-{3-[({5-[(1,3-thiazol-2-ylmethyl)amino]-1,3-benzothiazol-2-yl}methyl)amino]-1,2,4-triazin-5-yl}phenol]	410 nM
COc1cccc(OC)c1-c1cnnc(NCc2nc3c(s2)CCCC3)n1 [Example 57, 5-(2,6-Dimethoxyphenyl)-N-(4,5,6,7-tetrahydro-1,3-benzothiazol-2-ylmethyl)-1,2,4-triazin-3-amine]	1900 nM
Oc1cccc2sc(CNc3nncc(-c4ccccc4C(F)(F)F)n3)nc12 [Example 64, 2-[({5-[2-(Trifluoromethyl)phenyl]-1,2,4-triazin-3-yl}amino)methyl]-1,3-benzothiazol-4-ol]	5600 nM
COc1cccc(C)c1-c1cnnc(NCc2nc3cccnc3s2)n1 [Example 70, 5-(2-Methoxy-6-methylphenyl)-N-([1,3]thiazolo[5,4-b]pyridin-2-ylmethyl)-1,2,4-triazin-3-amine]	3100 nM
COc1ccc2sc(CNc3nncc(-c4c(C)cc(NC(=O)CN(C)C)cc4C)n3)nc2c1 [Example 75, 2-Dimethylamino-N-(4-{3-[(5-methoxy-benzothiazol-2-ylmethyl)-amino]-[1,2,4]triazin-5-yl}-3,5-dimethyl-phenyl)-acetamide]	190 nM
COc1cccc(OC)c1-c1cnnc(N(CC(=O)O)Cc2nc3ccccc3s2)n1 [Example 90, {(1,3-Benzothiazol-2-ylmethyl)[5-(2,6-dimethoxyphenyl)-1,2,4-triazin-3-yl]amino}acetic acid]	2000 nM
NCCSc1ccc2sc(CNc3nncc(-c4c(Cl)cccc4Cl)n3)nc2c1 [Example 94, N-({5-[(2-Aminoethyl)thio]-1,3-benzothiazol-2-yl}methyl)-5-(2,6-dichlorophenyl)-1,2,4-triazin-3-amine]	250 nM
COc1ccc2sc(CNc3nncc(-c4cc(-c5ccn[nH]5)ccc4Cl)n3)nc2c1 [Example 97, 5-[2-Chloro-5-(1H-pyrazol-3-yl)phenyl]-N-[(5-methoxy-1,3-benzothiazol-2-yl)methyl]-1,2,4-triazin-3-amine]	53 nM
COc1ccc2sc(CNc3nncc(-c4cc(-c5cn[nH]c5)ccc4Cl)n3)nc2c1 [Example 98, 5-[2-Chloro-5-(1H-pyrazol-4-yl)phenyl]-N-[(5-methoxy-1,3-benzothiazol-2-yl)methyl]-1,2,4-triazin-3-amine]	49 nM
COc1ccc2sc(CNc3nncc(-c4cc(-c5cccnc5)ccc4Cl)n3)nc2c1 [Example 99, 5-(2-Chloro-5-pyridin-3-ylphenyl)-N-[(5-methoxy-1,3-benzothiazol-2-yl)methyl]-1,2,4-triazin-3-amine]	150 nM
COc1ccc2sc(CNc3nncc(-c4cc(-c5cn(CCO)nn5)ccc4Cl)n3)nc2c1 [Example 100, 2-[4-(4-Chloro-3-{3-[(5-methoxy-benzothiazol-2-ylmethyl)-amino]-[1,2,4]triazin-5-yl}-phenyl)-[1,2,3]triazol-1-yl]-ethanol]	255 nM
COc1ccc2sc(CNc3nncc(-c4ccc(N5CCNCC5)cc4Cl)n3)nc2c1 [Example 107, N-[(5-Methoxy-1,3-benzothiazol-2-yl)methyl]-5-(2-chloro-4-piperazin-1-ylphenyl)-1,2,4-triazin-3-amine]	670 nM
Cc1cc(NCCN(C)C)cc(C)c1-c1cnnc(NCc2nc3cc(OCCN)ccc3s2)n1 [Example 108, N-[4-(3-{[5-(2-Amino-ethoxy)-benzothiazol-2-ylmethyl]-amino}-[1,2,4]triazin-5-yl)-3,5-dimethyl-phenyl]-N',N'-dimethyl-ethane-1,2-diamine]	1400 nM

tested on: E. coli K12 AcrAB- TolC-; experiment: Sensitization to complement killing assay (MIC with/without serum); type: cell-based; details: Escherichia coli, read-out: MIC for E. coli K12 AcrAB- TolC-, FBS=0 (MH2 broth only); 18-22H at 35°C
Protocol: The Gram-negative bacteria E. coli K12 AcrAB-/TolC- (K12 strain for which efflux pump components AcrA, AcrB and TolC have been deleted) is grown on Müller Hinton agar (MHA) overnight at 35°C. Five well isolated colonies from overnight agar growth are then added to 10 mL of cation adjusted Müller-Hinton Broth (MH2) and incubated at 35°C with constant shaking for two hours to reach the exponential phase. The suspension is then diluted to obtain an inoculum of 1.5E+04 CFU/mL. Viable counts are obtained by plating 10 to 1000-fold dilutions of the suspension on MHA. A solution of decomplemented Foetal Bovine Serum (dFBS) is prepared by heating normal FBS at 56°C for 30min. Compound dilutions are prepared in DMSO/water 20/80 in polypropylene plates. The following components are added on a polystyrene sterile culture plate in a final volume of 100µL: 5µL of compound in 20% DMSO, 30µL of FBS (30% final) or dFBS (30% final) or MH2 (0% FBS), 65µL of bacterial suspension at 1.5e4 CFU/mL (final inoculum of 1e4 CFU/mL). After 18-22H at 35°C incubation, the MIC of the compound in the presence of FBS 30%, dFBS 30% or FBS 0% is determined by visual inspection of bacterial pellets.

SMILES	MIC
O=C(COc1ccc2sc(CNc3nncc(-c4c(Cl)cccc4Cl)n3)nc2c1)NCCO [Example 18, 2-(2-{[5-(2,6-Dichloro-phenyl)-[1,2,4]triazin-3-ylamino]-methyl}-benzothiazol-5-yloxy)-N-(2-hydroxy-ethyl)-acetamide]	> 32 µg/mL

same assay, conditions: Escherichia coli, read-out: MIC for E. coli K12 AcrAB- TolC-, decomplemented FBS=30%; 18-22H at 35°C

SMILES	MIC
O=C(COc1ccc2sc(CNc3nncc(-c4c(Cl)cccc4Cl)n3)nc2c1)NCCO [Example 18, 2-(2-{[5-(2,6-Dichloro-phenyl)-[1,2,4]triazin-3-ylamino]-methyl}-benzothiazol-5-yloxy)-N-(2-hydroxy-ethyl)-acetamide]	> 32 µg/mL

same assay, conditions: Escherichia coli, read-out: MIC for E. coli K12 AcrAB- TolC-, normal (complemented) FBS=30%; 18-22H at 35°C

SMILES	MIC
O=C(COc1ccc2sc(CNc3nncc(-c4c(Cl)cccc4Cl)n3)nc2c1)NCCO [Example 18, 2-(2-{[5-(2,6-Dichloro-phenyl)-[1,2,4]triazin-3-ylamino]-methyl}-benzothiazol-5-yloxy)-N-(2-hydroxy-ethyl)-acetamide]	4 µg/mL
